Test results published in US20080118591A1, “Bactericidal Formulations” (priority 2004, published 2008).
Like-named read-outs stand apart in the source and are kept apart here.

Legend:
Pseudomonas aeruginosa = test: Rapid bactericidal activity of liquid wash formulations; type: cell-based
Procedure: The above formulations are supplemented with 0.9% (w/v) of the perfume composition A of example 2. A control of each formulation is left un-perfumed. The rapid bactericidal activity of these formulations is then tested as follows: • The products are diluted 1:1 in hard water as defined in the European standard EN 1276. This mimics conditions of use on wet hands or wet surfaces in commonly used water. • 500 μl of the product is mixed with 25 μl of a bacterial inoculum containing 2×10^8 cfu/ml (colony forming units). • The mixture is incubated for 30 seconds at 37° C. • 20 μl of the mixture is removed and added to 180 μl neutralising solution (containing 3 g lecithin, 30 g Tween® 80, 5 g sodium thiosulfate, 1 g histidine, 30 g saponin, 8.5 g sodium chloride, 1 g tryptone and 1000 ml water). • The mixture with neutraliser is incubated for 1 min • Serial dilutions of the mixture with neutralising solution are made, and aliquots of these are added to Petri-dishes and embedded in tryptic soy agar containing 0.5% Tween® 80 to inactivate any residual antibacterial compounds. • Bacterial numbers are counted after 24 h incubation at 37° C. and compared to control samples. • Reduction in bacterial viability is determined as described in example 1
The resulting formulations are tested in a 1:1 dilution for their rapid bactericidal effects after 30 seconds for Pseudomonas aeruginosa.
Formulation IVg is supplemented as indicated in the table below with various different chelating agents instead of EDTA and is tested as described in example 5a. The resulting products are tested with 30 s contact time at a 1:1 dilution for bactericidal effects on P. aeruginosa.

[1] = Pyrene 1:3 ratio (I373/I384) for micelle formation; type: physicochemical
Procedure: To 100 μl of each dilution, 5 μl of a pyrene solution (0.4 mM in ethanol) is added. After equilibration, the fluorescence of the solution with an excitation at 335 nm is determined.
To 100 μl of each dilution, 5 μl of a pyrene solution (0.4 mM in ethanol) is added. After equilibration, the fluorescence of the solution with an excitation at 335 nm is determined on an LS-50 Perkin Elmer fluorescence spectrometer.

gram-negative bacteria = test: Rapid bactericidal effect of perfume ingredients (example 1, Mueller-Hinton broth, most probable number method); type: cell-based; conditions: for rapid (30 s) bactericidal activity on gram-negative bacteria (class): 30 s contact time, 0.1% or 0.2% (w/v) in Mueller-Hinton broth
Procedure: A sufficiently rapid bactericidal activity of a perfume ingredient against gram-negative bacteria according to the invention is determined as follows. The perfume ingredient must have a reduction factor of bacterial viability of at least 20-fold when it is tested in a concentration of 0.2% in Mueller Hinton Broth with a contact time of 30 seconds as described below. The perfume ingredient is dissolved in dimethylsulfoxide (DMSO) in a concentration of 4% (w/v). An aliquot (10 μl) of the solution is added to individual wells of microtiter plates.
200 μl of Mueller-Hinton broth containing a bacterial inoculum of 2.5×10^6 cfu (colony forming units) is added. After 30 s contact time, 20 μl of the test solution is removed and added to 180 μl of a neutralising solution (containing 3 g lecithin, 30 g Tween® 80, 5 g sodium thiosulfate, 1 g histidine, 30 g saponin, 8.5 g sodium chloride, 1 g tryptone and 1000 ml water). After 1 min incubation, the sample is serially diluted 1:1 in Micotiter-plates containing 100 μl Mueller-Hinton Broth per well, and then incubated for 24 h at 37° C. The maximal dilution showing bacterial growth is recorded to determine the number of surviving bacteria (so-called most probable number method, which is a well-known microbiological method), and results are compared to control samples without added perfumery chemicals. Reduction in bacterial viability is thus calculated by dividing numbers of bacteria in control samples by the number surviving in the treated samples. […].
Test organisms Escherichia coli (ATCC 10536), Salmonella typhimurium (ATCC 13311) and Pseudomonas aeruginosa (ATCC 15442) are used. For Pseudomonas aeruginosa the test solution contains additionally 0.1% EDTA.
A large number of commercially-available materials including a collection of 900 perfumery chemicals is tested. The materials are dissolved in dimethylsulfoxide (DMSO) in a concentration of 4% (w/v). An aliquot (5 μl or 10 μl) of each solution is added to individual wells of microtiter plates. 200 μl of Mueller-Hinton broth containing a bacterial inoculum of 2.5×10^6 cfu (colony forming units) is added. After 30 s and 60 s contact time, 20 μl of the test solution is removed and added to 180 μl of a neutralising solution (containing 3 g lecithin, 30 g Tween® 80, 5 g sodium thiosulfate, 1 g histidine, 30 g saponin, 8.5 g sodium chloride, 1 g tryptone and 1000 ml water). After 1 min incubation, the samples are serially diluted 1:1 in Micotiter-plates containing 100 μl Mueller-Hinton Broth per well, and then incubated for 24 h at 37° C. The maximal dilution showing bacterial growth is recorded to determine the number of surviving bacteria (so-called most probable number method, which is a well-known microbiological method), and results are compared to control samples without added perfumery chemicals. Reduction in bacterial viability is thus calculated by dividing numbers of bacteria in control samples by the number surviving in the treated samples.

[2] = chelating agent added to formulation instead of EDTA, 1:1, 30 s

Compound: CC(O)(P(=O)(O)O)P(=O)(O)O [1-hydroxyethylidene-1,1-phosphonic acid]
- effect of the chelating agent on rapid activity of the formulation against Pseudomonas aeruginosa (in words) (Pseudomonas aeruginosa): not able to provide this improved activity

Compound: CCCCCCCCCCCCOS(=O)(=O)[O-].[Na+] [Sodium dodecylsulfate]
- ratio (I373)/(I384) (pyrene 1:3 ratio) ([1]; CONC 0.01% in water): 1.11
- ratio (I373)/(I384) (pyrene 1:3 ratio) ([1]; CONC 0.02% in water): 1.12
- ratio (I373)/(I384) (pyrene 1:3 ratio) ([1]; CONC 0.04% in water): 1.08
- ratio (I373)/(I384) (pyrene 1:3 ratio) ([1]; CONC 0.08% in water): 0.92
- ratio (I373)/(I384) (pyrene 1:3 ratio) ([1]; CONC 0.16% in water): 0.78
- ratio (I373)/(I384) (pyrene 1:3 ratio) ([1]; CONC 0.31% in water): 0.79
- ratio (I373)/(I384) (pyrene 1:3 ratio) ([1]; CONC 0.63% in water): 0.75
- ratio (I373)/(I384) (pyrene 1:3 ratio) ([1]; CONC 1.25% in water): 0.74

Compound: CC(C)=CCCC(C)CCOC=O (stereo not drawn) [citronellyl-formiate]
- antibacterial effect in formulations according to the present invention (in words) (gram-negative bacteria): do not provide a sufficient antibacterial effect
- rapid (30 s) bactericidal activity on gram-negative bacteria (class) (gram-negative bacteria): without activity

Compound: O=C(O)CN(CCN(CC(=O)O)CC(=O)O)CCN(CC(=O)O)CC(=O)O [DTPA, di-ethylen-triamine-penta-acetate]
- effect of the chelating agent on rapid activity of the formulation against Pseudomonas aeruginosa (in words) (Pseudomonas aeruginosa; [2]): not able to provide this improved activity

Compound: O=P(O)(O)CN(CP(=O)(O)O)CP(=O)(O)O [Aminotri (methylene-phosponic acid)]
- effect of the chelating agent on rapid activity of the formulation against Pseudomonas aeruginosa (in words) (Pseudomonas aeruginosa; [2]): not able to provide this improved activity

Compound: CCC(=O)OCCC(C)CCC=C(C)C (stereo not drawn) [citronellyl-propionate]
- antibacterial effect in formulations according to the present invention (in words) (gram-negative bacteria): do not provide a sufficient antibacterial effect
- rapid (30 s) bactericidal activity on gram-negative bacteria (class) (gram-negative bacteria): without activity

Compound: CC(C)=CCC/C(C)=C/COC=O [Geranyl-formiate]
- antibacterial effect in formulations according to the present invention (in words) (gram-negative bacteria): do not provide a sufficient antibacterial effect
- rapid (30 s) bactericidal activity on gram-negative bacteria (class) (gram-negative bacteria): without activity

Compound: O=C(O)CC(NC(CC(=O)O)C(=O)O)C(=O)O (stereo not drawn) [IDS, iminodisuccinic acid]
- effect of the chelating agent on rapid activity of the formulation against Pseudomonas aeruginosa (in words) (Pseudomonas aeruginosa; [2]): not able to provide this improved activity

Compound: CCC(=O)OC/C=C(/C)CCC=C(C)C [neryl-propionate]
- antibacterial effect in formulations according to the present invention (in words) (gram-negative bacteria): do not provide a sufficient antibacterial effect
- rapid (30 s) bactericidal activity on gram-negative bacteria (class) (gram-negative bacteria): without activity

Compound: C=CC(C)(CCC=C(C)C)OC(=O)CC (stereo not drawn) [linalyl-propionate]
- antibacterial effect in formulations according to the present invention (in words) (gram-negative bacteria): do not provide a sufficient antibacterial effect
- rapid (30 s) bactericidal activity on gram-negative bacteria (class) (gram-negative bacteria): without activity

Compound: O=C(O)C[C@H](NCCN[C@@H](CC(=O)O)C(=O)O)C(=O)O [EDDS, ethylendiaminedisuccinic acid]
- effect of the chelating agent on rapid activity of the formulation against Pseudomonas aeruginosa (in words) (Pseudomonas aeruginosa; [2]): not able to provide this improved activity

Compound: CC(=O)OCCC(C)CCC=C(C)C (stereo not drawn) [citronellyl-actetate]
- antibacterial effect in formulations according to the present invention (in words) (gram-negative bacteria): do not provide a sufficient antibacterial effect
- rapid (30 s) bactericidal activity on gram-negative bacteria (class) (gram-negative bacteria): without activity

Compound: CC(C)=CCC/C(C)=C\COC=O [neryl-formiate]
- antibacterial effect in formulations according to the present invention (in words) (gram-negative bacteria): do not provide a sufficient antibacterial effect
- rapid (30 s) bactericidal activity on gram-negative bacteria (class) (gram-negative bacteria): without activity

Compound: CCC(=O)OC/C=C(\C)CCC=C(C)C [Geranyl-propionate]
- antibacterial effect in formulations according to the present invention (in words) (gram-negative bacteria): do not provide a sufficient antibacterial effect
- rapid (30 s) bactericidal activity on gram-negative bacteria (class) (gram-negative bacteria): without activity

Compound: O=C(O)CN(CC(=O)O)[C@@H]1CCCC[C@H]1N(CC(=O)O)CC(=O)O (relative stereo) [CDTA, trans 1,2-diaminocyclohexane-N,N,N′N′-tetraacetic acid]
- effect of the chelating agent on rapid activity of the formulation against Pseudomonas aeruginosa (in words) (Pseudomonas aeruginosa): further improves the effectiveness

Compound: C=CC(C)(CCC=C(C)C)OC=O (stereo not drawn) [linalyl-formiate]
- antibacterial effect in formulations according to the present invention (in words) (gram-negative bacteria): do not provide a sufficient antibacterial effect
- rapid (30 s) bactericidal activity on gram-negative bacteria (class) (gram-negative bacteria): without activity

Compound: Cocoamidopropylbetaine
- ratio (I373)/(I384) (pyrene 1:3 ratio) ([1]; CONC 0.01% in water): 1.19
- ratio (I373)/(I384) (pyrene 1:3 ratio) ([1]; CONC 0.02% in water): 1.02
- ratio (I373)/(I384) (pyrene 1:3 ratio) ([1]; CONC 0.04% in water): 0.87
- ratio (I373)/(I384) (pyrene 1:3 ratio) ([1]; CONC 0.08% in water): 0.80
- ratio (I373)/(I384) (pyrene 1:3 ratio) ([1]; CONC 0.16% in water): 0.80
- ratio (I373)/(I384) (pyrene 1:3 ratio) ([1]; CONC 0.31% in water): 0.78
- ratio (I373)/(I384) (pyrene 1:3 ratio) ([1]; CONC 0.63% in water): 0.79
- ratio (I373)/(I384) (pyrene 1:3 ratio) ([1]; CONC 1.25% in water): 0.78

Compound: Diisopropyl-sulfosuccinate
- ratio (I373)/(I384) (pyrene 1:3 ratio) ([1]; CONC 0.01% in water): 1.21
- ratio (I373)/(I384) (pyrene 1:3 ratio) ([1]; CONC 0.02% in water): 1.21
- ratio (I373)/(I384) (pyrene 1:3 ratio) ([1]; CONC 0.04% in water): 1.20
- ratio (I373)/(I384) (pyrene 1:3 ratio) ([1]; CONC 0.08% in water): 1.36
- ratio (I373)/(I384) (pyrene 1:3 ratio) ([1]; CONC 0.16% in water): 1.99
- ratio (I373)/(I384) (pyrene 1:3 ratio) ([1]; CONC 0.31% in water): 1.65
- ratio (I373)/(I384) (pyrene 1:3 ratio) ([1]; CONC 0.63% in water): 1.48
- ratio (I373)/(I384) (pyrene 1:3 ratio) ([1]; CONC 1.25% in water): 1.39

Compound: Sodium xylene sulfonate
- ratio (I373)/(I384) (pyrene 1:3 ratio) ([1]; CONC 0.01% in water): 1.37
- ratio (I373)/(I384) (pyrene 1:3 ratio) ([1]; CONC 0.02% in water): 1.46
- ratio (I373)/(I384) (pyrene 1:3 ratio) ([1]; CONC 0.04% in water): 2.84
- ratio (I373)/(I384) (pyrene 1:3 ratio) ([1]; CONC 0.08% in water): 1.62
- ratio (I373)/(I384) (pyrene 1:3 ratio) ([1]; CONC 0.16% in water): 1.49
- ratio (I373)/(I384) (pyrene 1:3 ratio) ([1]; CONC 0.31% in water): 1.43
- ratio (I373)/(I384) (pyrene 1:3 ratio) ([1]; CONC 0.63% in water): 1.41
- ratio (I373)/(I384) (pyrene 1:3 ratio) ([1]; CONC 1.25% in water): 1.04

Compound: O=C(O)CN(CC(=O)O)CC(=O)O [NTA, nitrilotriacetic acid]
- effect of the chelating agent on rapid activity of the formulation against Pseudomonas aeruginosa (in words) (Pseudomonas aeruginosa; [2]): not able to provide this improved activity
